The source of these data is patent US8192962B2, “Processes for detecting toxic substances” (Daikin Industries, Ltd., priority 2001, dated 2012).

The experiment concerns Transport facilitation protein genes. The experiment is described as follows: DNA chip mRNA expression in yeast, transport facilitation protein genes (Table 5). Type of experiment: cell-based, Saccharomyces cerevisiae S288C. Summed up: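 S. cerevisiae S288C grown at 25° C. in YPD to log phase, then exposed 2 h to a toxicant at a growth-inhibiting, non-lethal concentration; untreated cells as control. Poly(A) mRNA reverse-transcribed with Cy3-dUTP or Cy5-dUTP, hybridized >12 h at 65° C. to whole-genome yeast DNA chip; value = fluorescence ratio treated/untreated.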

As for `C[S+](C)[O-]` [(15), dimethylsulfoxide], the “The level of expressed mRNA in the presence of chemical substance/The level of expressed mRNA in the absence of chemical substance” value by setting is: (yeast gene YBR052C) 0.7; (yeast gene YIL022W) 2.9; (yeast gene YKL016C) 0.7; (yeast gene YLR081W) 0.7; (yeast gene YPR194C) 0.4.
